# According to the supplement of paper PMC4862054:
# Assays:
# Experiment in all cases: normalised response (% of control), CellTox Green; higher = less cell death (100 = DMSO, 0 = benzethonium chloride kill control)
# Conditions in all cases: incubation time: 72 h
# [1] = test system: MFM-223
# Summary of the method: (§1)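 Breast cancer cell lines were exposed for 72 h in 384-well plates to compound at 5 concentrations, 10-fold apart, covering a 10,000-fold range fixed for each compound. Plates were read for CellTox Green fluorescence and CellTiter-Glo luminescence and normalised to 0.1 % DMSO (100) and a positive kill control (0). Each value is the normalised signal at one concentration of the series.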
# [2] = test system: DU-4475
# Summary of the method: as §1
# [3] = test system: HDQ-P1
# Summary of the method: as §1
# [4] = test system: HCC1599
# Summary of the method: as §1
# [5] = test system: BT-474
# Summary of the method: as §1
# [6] = test system: HCC1937
# Summary of the method: as §1
# [7] = test system: BT-549
# Summary of the method: as §1
# [8] = test system: HCC1143
# Summary of the method: as §1
# [9] = test system: MDA-MB-453
# Summary of the method: as §1
SMILES,normalised response [1] [%],normalised response [2] [%],normalised response [3] [%],normalised response [4] [%],normalised response [5] [%],normalised response [6] [%],normalised response [7] [%],normalised response [8] [%],normalised response [9] [%]
Cc1ccc(NC(=O)c2ccc(CN3CCN(C)CC3)cc2)cc1Nc1nc(-c2cccnc2)cs1 [Masitinib] (10000 nM),96.5,100,106,67.6,53.3,88.7,109,96.5,87.1
O=C(Nc1cccnc1)N1CCC(Cc2cccc(Oc3ccc(C(F)(F)F)cn3)c2)CC1 [PF-3845] (10000 nM),78.1,101,52.3,95.7,76.7,76.2,111,126,63.6
COc1cc(OC2CCN(C)CC2)ccc1Nc1ncc2c(n1)n(C1CCCC1)c(=O)n2C [AZ 3146] (10000 nM),104,90.2,86.1,53.3,70.2,-6.06,105,86.7,105
N#Cc1ccc(COC[C@H]2O[C@@H](n3c(NCc4ccc(Cl)c(Cl)c4)nc4c(N)ncnc43)[C@H](O)[C@@H]2O)cc1 (10000 nM),2.84,104,110,109,98.8,106,111,79.2,102
CN(C)CCOc1ccc(/C(=C(/CCCl)c2ccccc2)c2ccccc2)cc1 [Toremifene] (10000 nM),94.7,94.6,103,80.3,22.9,-3.77,82,,86.4
NC(=O)c1ccc(I)c([N+](=O)[O-])c1 [Iniparib] (1000 nM),96.7,95.2,103,89,94.6,63.7,121,101,88.2
CNC(=O)c1cc(Oc2ccc(NC(=O)Nc3ccc(Cl)c(C(F)(F)F)c3)c(F)c2)ccn1 [Regorafenib] (10000 nM),97.3,92.5,111,106,82,10.5,109,120,98.3
O=C(Nc1cccnc1)N1CCC(Cc2cccc(Oc3ccc(C(F)(F)F)cn3)c2)CC1 [PF-3845] (1000 nM),102,108,70.8,108,102,124,107,97.7,108
c1ccc2c(CCNc3ccc(Nc4ccncc4)cc3)c[nH]c2c1 [Serdemetan] (1000 nM),97.8,94,99.7,89.1,99.5,,124,,102
Oc1ccc2c(c1)CC[C@H](c1ccccc1)[C@@H]2c1ccc(OCCN2CCCC2)cc1 [Lasofoxifene] (100 nM),,105,66,95.2,103,113,113,,88
COc1cc2/c(=N/c3ccc(Br)cc3F)nc[nH]c2cc1OCC1CCN(C)CC1 [Vandetanib] (1000 nM),95,96.9,40.1,106,96.7,84.1,114,85.7,96.7
O=C(Nc1ccncc1)C(=O)c1cn(Cc2ccc(Cl)cc2)c2ccccc12 [Indibulin] (10000 nM),72.9,106,69.6,105,81.4,99,95.4,121,105
N#Cc1ccc(COC[C@H]2O[C@@H](n3c(NCc4ccc(Cl)c(Cl)c4)nc4c(N)ncnc43)[C@H](O)[C@@H]2O)cc1 (1000 nM),104,103,106,102,100,90.4,123,115,112
COCC1(CO)C(=O)C2CCN1CC2 (centres undefined) [Prima-1 Met] (1000 nM),89.9,104,101,109,104,120,112,114,107
COc1cc2ncnc(Nc3ccc(F)c(Cl)c3)c2cc1OCCCN1CCOCC1 [Gefitinib] (1000 nM),65.4,101,84.8,97.8,91,123,123,83.2,98.3
O=C(/C=C/c1cccc(S(=O)(=O)Nc2ccccc2)c1)NO [Belinostat] (1000 nM),78.5,75.8,103,86.1,65.2,117,129,100,99.5
Cc1ccc(NC(=O)c2ccc(CN3CCN(C)CC3)cc2)cc1Nc1nc(-c2cccnc2)cs1 [Masitinib] (1000 nM),89.7,100,89.1,101,102,113,110,99.5,102
CCc1c2c(nc3ccc(OC(=O)N4CCC(N5CCCCC5)CC4)cc13)-c1cc3c(c(=O)n1C2)COC(=O)[C@]3(O)CC [Irinotecan] (1000 nM),101,99.1,93.7,99.1,103,123,121,96.6,107
O=P1(N(CCCl)CCCl)NCCCO1 (centres undefined) [Cyclophosphamide] (40000 nM),102,100,107,107,99.1,102,100,71.3,106
COCC[n+]1c2c(n(Cc3cnccn3)c1C)C(=O)c1ccccc1C2=O [YM155] (1000 nM),55.1,77,-26.1,51.1,-1.55,9.52,14.8,49.3,42.2

SMILES,normalised response [1] [%],normalised response [2] [%],normalised response [3] [%],normalised response [4] [%],normalised response [5] [%],normalised response [6] [%],normalised response [7] [%],normalised response [8] [%],normalised response [9] [%]
Oc1ccc2c(c1)CC[C@H](c1ccccc1)[C@@H]2c1ccc(OCCN2CCCC2)cc1 [Lasofoxifene] (1000 nM),95.5,102,86.1,111,99.8,72.2,118,112,104
CC(C)C[C@@H](C(=O)N[C@H](C(=O)OC1CCCC1)c1ccccc1)[C@H](O)C(=O)NO [Tosedostat] (1000 nM),31.9,101,57.9,90.8,91.7,90.1,70.1,105,95.1
CN(C)c1nc(N(C)C)nc(N(C)C)n1 [Altretamine] (10000 nM),96.6,98.3,94.3,103,102,104,97.2,109,105
CNC(=O)c1cc(Oc2ccc(NC(=O)Nc3ccc(Cl)c(C(F)(F)F)c3)c(F)c2)ccn1 [Regorafenib] (1000 nM),102,102,97.6,103,101,122,116,,107
O=C(Nc1ccncc1)C(=O)c1cn(Cc2ccc(Cl)cc2)c2ccccc12 [Indibulin] (1000 nM),71.8,101,107,104,92.1,68.1,117,93.6,106
CN(C)CCOc1ccc(/C(=C(/CCCl)c2ccccc2)c2ccccc2)cc1 [Toremifene] (1000 nM),92.4,99.9,,95.5,100,110,99.3,118,106
c1ccc2c(CCNc3ccc(Nc4ccncc4)cc3)c[nH]c2c1 [Serdemetan] (10000 nM),38.8,68.3,88.7,82.8,56.7,102,86.7,89.7,95.2
CCc1c2c(nc3ccc(OC(=O)N4CCC(N5CCCCC5)CC4)cc13)-c1cc3c(c(=O)n1C2)COC(=O)[C@]3(O)CC [Irinotecan] (10000 nM),103,84.8,74.4,87,102,55.9,107,95.2,109
CO[C@H]1C[C@@H]2CC[C@@H](C)[C@@](O)(O2)C(=O)C(=O)N2CCCC[C@H]2C(=O)O[C@H]([C@H](C)C[C@@H]2CC[C@@H](OP(C)(C)=O)[C@H](OC)C2)CC(=O)[C@H](C)/C=C(\C)[C@@H](O)[C@@H](OC)C(=O)[C@H](C)C[C@H](C)/C=C/C=C/C=C/1C [Ridaforolimus] (100 nM),102,100,70.1,89.3,100,103,125,121,104
COCC1(CO)C(=O)C2CCN1CC2 (centres undefined) [Prima-1 Met] (10000 nM),93.1,107,102,108,101,,63.4,93,104
COc1cc(OC2CCN(C)CC2)ccc1Nc1ncc2c(n1)n(C1CCCC1)c(=O)n2C [AZ 3146] (1000 nM),101,97.9,99.6,92.5,101,88.2,120,87.6,109
C=C1C[C@@H]2[C@H](CC[C@]3(C)C(=O)CC[C@@H]23)[C@@]2(C)C=CC(=O)C=C12 [Exemestane] (1000 nM),100,109,116,108,97.2,121,113,108,112
O=C(/C=C/c1cccc(S(=O)(=O)Nc2ccccc2)c1)NO [Belinostat] (10000 nM),62.1,76,76.1,93.8,21.2,80.3,103,79.7,88.7
O=P1(N(CCCl)CCCl)NCCCO1 (centres undefined) [Cyclophosphamide] (4000 nM),94.8,102,112,105,100,124,98.7,,105
NC(=O)c1ccc(I)c([N+](=O)[O-])c1 [Iniparib] (10000 nM),95.6,94.3,,100,89.9,107,113,,99.6
CC(C)C[C@@H](C(=O)N[C@H](C(=O)OC1CCCC1)c1ccccc1)[C@H](O)C(=O)NO [Tosedostat] (10000 nM),98.5,97.8,26,95.4,66.9,76.8,-46.2,30.3,86.1
Cc1[nH]c2ccccc2c1CCNCc1ccc(/C=C/C(=O)NO)cc1 [Panobinostat] (1000 nM),32.5,68.2,39.2,53.1,19.9,-17.6,69.6,47.3,75.5
COc1cc2ncnc(Nc3ccc(F)c(Cl)c3)c2cc1OCCCN1CCOCC1 [Gefitinib] (10000 nM),104,96.9,94.9,96.9,17.4,98.2,114,113,79
C=C1C[C@@H]2[C@H](CC[C@]3(C)C(=O)CC[C@@H]23)[C@@]2(C)C=CC(=O)C=C12 [Exemestane] (10000 nM),86.2,106,,112,105,115,81.2,112,106
